Each structure is given as a SMILES string. Values after ≈ are worked out from the molar mass of the structure shown. Bounds are passed on as bounds.

The results in this text go back to PubChem BioAssay AID1996.

For this data set the following is noted: buffer; pH 7.4; 200.0 µM.
In the case of `COc1ccccc1N1CN(Cc2ccccc2)CNC1=S`, the kinetic solubility is more than 47 µg/mL. For `O=C1NC(=O)/C(=C/c2cc3c(cc2Br)OCO3)S1` the value was more than 49.2 µg/mL. For `CC(=O)c1ccc(NC(=O)C(C)OC(=O)/C=C/c2ccco2)cc1` (stereo unspecified) the value was 21.7 µg/mL (≈ 66.3 µM); for `O=C(CSc1ccc([N+](=O)[O-])cn1)Nc1ccc2c(c1)OCCO2`, 0.7 µg/mL (≈ 2.02 µM). For `CCN(C(=O)CSc1nnc(-c2ccc(OC)cc2)n1C(C)C)C1CCS(=O)(=O)C1` (stereo unspecified) the value was more than 67.9 µg/mL; for `Cc1ccc(OCC(=O)Nc2cc(C)on2)c([N+](=O)[O-])n1`, 18 µg/mL (≈ 61.6 µM); for `COc1cc(NC(N)=S)c(OC)cc1Cl`, more than 37 µg/mL. Turning to `O=C(CCN=C1NS(=O)(=O)c2ccccc21)Nc1ccc(F)cc1Cl`, the solubility (kinetic) is more than 57.3 µg/mL. For `CC(C)(C)c1nc2ccc([N+](=O)[O-])cc2[nH]1` the value was more than 32.9 µg/mL; for `Cc1cccc(NC(=O)CNC(=O)c2cccc(-n3cccc3)c2)c1C`, 8.6 µg/mL (≈ 24.8 µM). Turning to `C[C@H](NS(=O)(=O)c1ccc(Cl)cc1)C(=O)OCC(=O)N1CCOCC1`, the solubility (kinetic) came to 55.9 µg/mL (≈ 143 µM). `CC1NC(=O)NC1CCCCCC(=O)Nc1ccc(F)c(Cl)c1` (stereo unspecified) yielded a solubility (kinetic) of more than 51.3 µg/mL.

Take `COC(=O)c1cc2cc(Cl)ccc2nc1SC`: the solubility (kinetic) is less than 0.6 µg/mL. For `CN(C)S(=O)(=O)c1cccc(C(=O)NCCCn2ccnc2)c1` the value was more than 50.5 µg/mL; for `Cc1ccc(NS(=O)(=O)c2cccc([N+](=O)[O-])c2)nc1`, 14.6 µg/mL (≈ 49.8 µM). For `CCOc1ccccc1NC(=O)C(NC(=O)C1CCC(C)CC1)C(C)C` (stereo unspecified) the value was 4.9 µg/mL (≈ 13.6 µM); for `Clc1cc2nc[nH]c2cc1Cl`, more than 28.1 µg/mL; for `CCCCCc1cc(O)c2c3c(c(=O)oc2c1)CN(C)CC3`, less than 0.6 µg/mL. The compound `CCC1CCCCN1CC(=O)c1c(C)[nH]c2cc(C)ccc12` (stereo unspecified) returned a kinetic solubility of 33 µg/mL (≈ 111 µM). For `Cc1ccc(NC(=O)NCc2ccccn2)c(C)c1` the value was more than 38.3 µg/mL; for `Cc1cc(S(=O)(=O)Nc2ccc(C(=O)NCC3CCCO3)cc2)ccc1F` (stereo unspecified), 1 µg/mL (≈ 2.55 µM); for `CCCCN(C(=O)CSc1ncnc2sccc12)c1c(N)n(Cc2ccccc2)c(=O)[nH]c1=O`, 3.9 µg/mL (≈ 7.85 µM). For `Cc1ccc(C(=O)NC(=S)Nc2ccc3[nH]c(=O)[nH]c3c2)c(C)c1` the value was less than 0.2 µg/mL; for `Cn1cnc([N+](=O)[O-])c1Sc1ccc(C(C)(C)C)cc1`, 6.1 µg/mL (≈ 20.9 µM). On to `Cc1ccc(OC(C)C(=O)Nc2ccc(F)cc2)c([N+](=O)[O-])n1` (stereo unspecified), for which the solubility (kinetic) was determined as 39.7 µg/mL (≈ 124 µM).

Compound `COc1ccc2ccccc2c1-c1csc(N)n1` had a solubility (kinetic) of more than 38.4 µg/mL. For `CCc1ccc(CCOc2ccc(CC3SC(=O)NC3=O)cc2)nc1.Cl` (stereo unspecified) the value was 1.8 µg/mL; for `Cc1nc2ccccn2c1C(=O)NNC(=O)Nc1cccc(C(F)(F)F)c1`, more than 56.6 µg/mL; for `CC1CCCC(NC(=O)COC(=O)COc2ccccc2Cl)C1C` (stereo unspecified), 31.1 µg/mL (≈ 87.9 µM). For `O=C(Cc1c(F)cccc1Cl)Nc1ccccn1` the value was 30.2 µg/mL (≈ 114 µM); for `Cc1occc1C(=O)Nc1ccc(S(N)(=O)=O)cc1`, more than 42 µg/mL.

For `COc1ccc(OC)c(NC(=O)CN2CCc3ccccc3C2)c1`, the kinetic solubility was 14.9 µg/mL (≈ 45.7 µM). For `O=C(O)CCNC(=O)c1ccccc1` the value was more than 29 µg/mL; for `COC(=O)c1ccc(C(=O)OC)c(NC(=O)CSCC(=O)O)c1`, more than 51.2 µg/mL. For `CC(C)[C@H](NC(=O)c1ccccc1F)C(=O)OCC(=O)NC(=O)NC1CCCCC1` the value was 51.3 µg/mL (≈ 122 µM); for `CCn1c(CNC(=O)c2ccccc2F)cc2ccccc21`, 2 µg/mL (≈ 6.75 µM); for `Cc1ccc(Cl)cc1NC(=S)N1CCCCCC1`, 37.8 µg/mL (≈ 134 µM). For `Cl.OC1(CNCc2ccccc2)C2CC3CC(C2)CC1C3` (stereo unspecified) the value was more than 46.2 µg/mL; for `Cc1c(NCc2cccnc2)cccc1C(=O)O`, more than 36.3 µg/mL; for `Cc1ccc(S(=O)(=O)N2CCN(CC(=O)N3CCOCC3)CC2)cc1`, 54.7 µg/mL (≈ 149 µM).

`COCCNC(=S)NCc1cccs1` returned a solubility (kinetic) of 31.9 µg/mL (≈ 138 µM).

For `CCOC(=O)/C(C#N)=C/N1CCOCC1`, the solubility (kinetic) is more than 31.5 µg/mL.

The compound `O=C1Nc2ccc(Cl)cc2C(C#CC2CC2)(C(F)(F)F)O1` (stereo unspecified) gave a kinetic solubility of 19.6 µg/mL (≈ 62.1 µM). Compound `COc1ccccc1NC(=O)c1cc(N)cc(C(=O)Nc2ccccc2OC)c1` displayed a solubility (kinetic) of 29.5 µg/mL (≈ 75.4 µM). For `CC(=O)C1=C(O)C(=O)N(c2ccc(O)cc2)C1c1ccccc1` (stereo unspecified) the value was more than 46.4 µg/mL; for `CC(=O)N1CCN(CC(=O)Nc2cccc(S(=O)(=O)N3CCCCC3)c2)CC1`, more than 61.3 µg/mL. For `COc1ccc(CCNC(=O)C(=O)N2CCCC2)cc1OC` the value was 39.7 µg/mL (≈ 130 µM). For `COc1ccc(CCNC(=O)C(=O)NCC2CCNCC2)cc1OC` the value was more than 52.4 µg/mL. `Cc1ccsc1CNCC(O)c1ccccc1.Cl` (stereo unspecified) showed a solubility (kinetic) of more than 42.6 µg/mL. For `COc1ccc(-c2cc(C(=O)OCC(=O)N3CCCCC3)c3ccccc3n2)cc1OC` the value was 13.8 µg/mL (≈ 31.8 µM); for `Cc1cnc(=O)[nH]c1SCc1ccccc1F`, more than 37.5 µg/mL.

Usually solubility (kinetic) stands for solubility judged after dilution from a stock solution rather than from solid.
